Measurements published in patent US11260042B2, “Pharmaceutical combination for the treatment of cancer” (ABILITY PHARMACEUTICALS S.L., priority 2017, dated 2022).
Entries after “also recorded” stand apart in the source; their conditions may differ.

Columns and labels:
[1] = test system: A549 (human lung carcinoma) cell line; assay: Cell viability (MTT) of ABTL0812 in combination with docetaxel in lung cancer; format: cell-based; settings: A549, three days, FBS 0.5%, single agent
Description: Methods: A549 cells were incubated with increasing concentrations of ABTL0812 (3-300 μM), docetaxel (0.01-100 μM), or a combination of both (subIC50, i.e., 20 μM fixed concentration of ABTL812 and 0.01-100 μM docetaxel) for three days (FBS 0.5%). […] In the denominator, (Dx)1 is for D1“alone” that inhibits a system x %, and (Dx)2 is for D2“alone” that inhibits a system x %.

[2] = test system: HTB-812 cells; assay: Cell viability (MTT) of ABTL0812 in combination with paclitaxel, HTB-812; format: cell-based, human; settings: HTB-812, 48 hours, 0.1% FBS, single agent
Description: Methods: A549 cells were incubated with increasing concentrations of ABTL0812 (3-300 μM), paclitaxel (0.003-1 μM), or a combination of both using subIC50 fixed concentration of ABTL0812 and 0.003-1 μM paclitaxel for 72 hours in DMEM with 0.1% FBS. H157, H1957 and HTB-812 cells were incubated with increasing concentrations of paclitaxel (0.001-10 μM) alone and in combination with subIC50 fixed concentration of ABTL0812 for 48 hours in DMEM with 0.1% FBS. Cell viability was evaluated in all cases by MTT assay and IC50's were calculated for paclitaxel and the combination. The concentrations of the combinations for the different cell lines were:
Finally, the Combination Index (CI), as described in the previous section, was calculated for the values of paclitaxel IC50.

[3] = test system: MiaPaca2 (human pancreatic carcinoma); assay: Cell viability (MTT) of ABTL0812 alone or with gemcitabine in pancreatic cancer; format: cell-based
Description: Methods: MiaPaca2 cells were seeded in 24-well plates together with gemcitabine (0.01-100 μM), ABTL812 (3-300 μM), or a combination of both (subIC50, i.e., 25 μM fixed concentration of ABTL0812 with 0.01-100 μM gemcitabine) and left in the incubator for 72h (0.5% FBS). Cell viability was studied by the MTT assay and several parameters were determined to evaluate a possible synergism. First the IC50 for each drug alone or the combination was calculated. Then, synergism (CI) was calculated as described above.

[4] = test system: MDB-DA-231 (human triple negative breast cancer); assay: Cell viability (MTT) of ABTL0812 alone or with paclitaxel in breast cancer; format: cell-based
Description: Methods: MDB-DA-231 cells were seeded in 24-well plates together with increasing concentration of paclitaxel (1-100 nM) in the presence of 5, 10 and 20 μM of ABTL0812 (all doses below to an IC25) for 48h (0.5% FBS). Cell viability was studied by the MTT assay and several parameters were determined to evaluate a possible synergism. First the IC50 for each drug alone or the combination was calculated.

[5] = test system: SH-SY5Y human neuroblastoma xenograft; format: in vivo, Nu/nu female mice
Description: Methods: Immunodeficient athymic NMRI-Foxn1^nu/Foxn1^nu nude mice were subcutaneously injected with SH-SY5Y cells. This cell line was genetically modified to express luciferase, which would allow the in vivo study not only of tumor size, but also of metastasis formation. When tumors reached an average volume of 80 mm^3, mice were randomly distributed into different treatment groups. ABTL0812 was administered orally at 120 mg/kg daily. In parallel we used cisplatin, a drug included in the chemotherapy induction phase for the treatment of neuroblastoma. Cisplatin was administered at 2 mg/kg i.p. twice a week (Wang et al. 2010). Additionally, we studied the effect of combining ABTL0812 with cisplatin at the indicated doses.
C. Metastasis formation. In order to investigate the effect of ABTL0812 in metastasis formation we used a SH-SY5Y cell line transduced with a luciferase reporter vector. As described above, mice bearing xenograft tumors derived from this cell line were treated with ABTL0812, cisplatin or the combination of both drugs. After ten days of treatment animals were sacrificed and metastasis were assessed ex vivo by monitoring luciferase-expressing cells in lung and liver.

[6] = test system: EGI-1 human cholangiocarcinoma xenograft; assay: Human cholangiocarcinoma (EGI-1) xenograft, gemcitabine and cisplatin; format: in vivo, Nu/nu male mice; settings: ABTL0812 120 mg/kg oral; gemcitabine 50 mg/kg and cisplatin 2 mg/kg i.p. once a week
Description: Methods: EGI-1 cell line was routinely cultured in DMEM 10% FBS and cells in an exponential growth phase were harvested and counted for tumor inoculation.
Treatment groups were: • Vehicle group (n=8): treated orally with 200 μl of water+5% glycerol four days a week and two injections i.p. of 100 μl of saline solution once a week • ABTL0812 (n=8): treated orally with 200 μl of 120 mg/kg of ABTL0812 resuspended in water+5% glycerol 5 times a week • Gemcitabine/cisplatin (n=8): treated with 100 μl of 50 mg/kg of gemcitabine administered i.p. and 100 μl of 2 mg/kg of cisplatin administered i.p. once a week • ABTL0812+gemcitabine/cisplatin (n=8): treated orally with 200 μl of 120 mg/kg of ABTL0812 four days a week and 100 μl of 50 mg/kg of gemcitabine administered i.p. and 100 μl of 2 mg/kg of cisplatin administered i.p. once a week

[7] = format: in vivo
Description: Methods: Forty-five female CD-1 mice were distributed by means of the body weight stratification method into nine experimental groups (A-I) (5 animals for group) that differed in the treatment or in the day on which the reference items (paclitaxel and carboplatin) were administered.
The table below summarizes the treatment groups. Please note that the same administration schedule and doses were administered as in the previous efficacy studies.
The safety assessment relied on observed mortality, local and systemic clinical signs, body weight and food consumption recorded throughout the whole study. In addition, clinical pathology determinations (biochemistry and hematology) were performed before sacrifice in all animals. At the end of the observation period (one day after the last administration), all surviving animals were sacrificed and subjected to a gross necropsy. Moreover, the safety assessment was also based on the weight of selected target organs collected at sacrifice.

[8] = test system: human endometrial cancer patient derived xenograft; assay: Patient-derived xenograft (PDX) endometrial model, paclitaxel and carboplatin
Description: After tumors grew up to 100 mm^3, tumors were extracted from mice, minced in 2 mm long pieces and re-implanted in one flank of 40 mice. When average tumor volume reached 100 mm^3, mice were randomly distributed into treatment groups, and dosed as follows: vehicle (n=11); ABTL0812: 120 mg/kg orally, 5 times per week (n=10); paclitaxel/carboplatin (P/C): P:50 mg/kg/C:15 mg/kg intraperitoneal (n=12); and ABTL0812+P/C: ABTL0812 (n=10) was administered always two days prior to the first P/C administration and two days after, maintaining 4 doses of ABTL0812 and one of P/C per week; doses were the same as when given separately.
The effectiveness of the therapy was measured by the impact of the treatment on the tumor growth, which was measured by its volume. The health state of the animals and the drug-induced toxicity were determined by the animal body weight during the study. Tumor size evolution and tumor weight were evaluated by two-way ANOVA (day by day analysis).
In order to simulate the Phase II clinical trial design, where ABTL0812 will be administered chronically after P/C cycles, P/C treatment was removed from P/C and ABTL0812+P/C groups, maintaining ABTL0812 chronically. Tumor volume was measure after P/C treatment removal during an extra 17 days.

In the case of CCCCC/C=C\C/C=C\CCCCCCC(O)C(=O)O (stereo not shown) [ABTL0812, COOH—CHOH—(CH2)6—(CH═CH—CH2)2—(CH2)3—CH3], the IC50 [1] is reported as 42 µM, the IC50 [2] is reported as 29 µM and the “cytotoxicity alone at the concentration chosen for the combination” value ([3]; MiaPaca2, 25 μM ABTL0812) is reported as under 10%. For the same compound, the IC50 ([3]; MiaPaca2, 72h, 0.5% FBS, MTT, single agent) was 49 µM, the “cytotoxicity alone at the concentration chosen for the combination” value ([4]; MDB-DA-231) was under 10% and the IC50 ([4]; MDB-DA-231, 48h, 0.5% FBS, MTT, single agent) was 29 µM. The “tumor progression (size, weight)” value ([5]; ABTL0812 120 mg/kg oral daily, cisplatin 2 mg/kg i.p. twice a week) was “inhibits tumor progression with an efficacy that is similar to cisplatin”, the Hematocrit ([5]; mouse, in vivo) was 40.2 ± 1.4% and the RBC ([5]; mouse, in vivo) was 7.9 ± 0.4 ×10^6/μL. For the same compound, the WBC ([5]; mouse, in vivo) was 3.9 ± 1.3 ×10^3/μL, the “hematological safety” value ([5]; mouse, in vivo) was “no impact on blood hematocrit” and the “loss of body weight (transient)” value ([5]; mouse, in vivo) was under 10%. The “metastasis formation in lung and liver” value ([5]; ten days of treatment, luciferase-expressing cells ex vivo) was “inhibited metastasis formation”, the tumor volume [6] was “did not show tumor volume reduction compared to vehicle until the last day of treatment” and the “Biochemistry Creat” value ([7]; mouse, in vivo) was 9.18 µmol/L. For the same compound, the “Biochemistry Triglyc” value ([7]; mouse, in vivo) was 0.94 mmol/L, the “Biochemistry Urea” value ([7]; mouse, in vivo) was 3.66 mmol/L and the “Body Weight Gain D 8-11” value ([7]; mouse, in vivo) was 0.138 g. The “Hematology PLT” value ([7]; mouse, in vivo) was 1293 ×10^3/μL, the “Hematology RBC” value ([7]; mouse, in vivo) was 9.57 ×10^6/μL and the “Hematology WBC” value ([7]; mouse, in vivo) was 5.94 ×10^3/μL. The mortality and tolerability ([7]; two-week administration) was “did not cause mortality and was well tolerated”, the “tumor growth after P/C removal” value ([8]; after day 47, P/C stopped, ABTL0812 maintained chronically, extra 17 days) was “tumor growth inhibition very similar to P/C” and the “tumor growth (volume)” value ([8]; first 47 days, ABTL0812 120 mg/kg orally, P 50 mg/kg / C 15 mg/kg i.p.) was “same efficacy as P/C”. The “total body weight, toxicity” value ([8]; mouse, in vivo) was “without any signs of relevant toxicity; also recorded: Body weight reduction was observed partially only in ABTL0812 group at day 15”.
